Experimental data: patent US20240368149A1, “ANALOGS OF XANOMELINE” (Terran Biosciences Inc., priority 2023, published 2024)
Like-named read-outs stand apart in the source and are kept apart here.

Key:
[1] = Rat PK: plasma prodrug concentration after intramuscular (IM) dosing of xanomeline prodrugs at 5 mg/kg (Example A-4); format: in vivo, male Sprague-Dawley (SD) rats; conditions: male, Sprague-Dawley, IM 5 mg/kg of xanomeline, Mean
Experimental: (§1) • Step 1: A stock solution of the compound(s) were prepared to 1 mg/ml in DMSO • Step 2: A 10,000 ng/mL matched matrix standard was prepared using the stock solution(s) • Step 3: Calibration standards in matched matrix were prepared between 10,000 ng/ml and 0.5 ng/mL using serial dilution • Step 4: QC samples were prepared in matched matrix at 4000, 800, 400, 40 and 10 ng/mL
(§2) • Step 1: Add 10 μL of the standards, QCs and samples to a 96-well plate (extraction plate) • Step 2: To each standard, QC and test sample, add 100 μL of ISZ • Step 3: Sonicate for 2 min then mix the plate for approximately 2 min at 1200 rpm on a plate shaker • Step 4: Centrifuge the plate at 3000 rpm for 5 min • Step 5: Add 50 μL 0.1% formic acid in UP H2O to wells of a new 96-well plate • Step 6: Transfer 50 μL extracted sample to relevant position in second 96-well plate • Step 7: Mix at 1200 rpm for 2 min • Step 8: Heat seal and analyse on the LC-MS/MS system • Instrument: Xevo TQ-D with CTC Autosampler
(§3) Samples were sent for method optimization and measurement of prodrug via unique calibration lines and following acceptance QC's. Dose formulation concentrations were also measured, and PK parameters were determined (Cmax (ng/mL), Tmax (hr), Cl (ml/min/kg), Vdss (L/kg), t½ (hr), AUC0-t (ng/mL*hr), AUC0-inf (ng/mL*hr), MRT (hr), Bioavailability (% F) where warranted) using WinNon Lin software. Data (including bioanalytical results and assay performance) were reported in a tabulated format and QC'd.
Formulation for IM administration: All compounds were formulated as solutions or fine suspensions in saline at 12.5 mg API/mL. This provided doses of 5 mg/kg (equivalent of xanomeline) when given to a 250 g rat in a 100 μL dosing volume.
The pharmacokinetic properties of the synthesized xanomeline prodrugs after intramuscular administration in a rat model were assessed. The concentration of prodrug was measured in each rat at various sampling timepoints after intramuscular administration of the synthesized xanomeline prodrugs to rats.
Dose formulations were made at equivalent concentrations of active compound (xanomeline) adjusted for molecular weight of the compounds. The synthesized xanomeline prodrugs were dosed at 5 mg/kg intramuscular (IM) nominal dose. Nominal doses were used in PK parameter determinations.

[2] = Rat PK: plasma prodrug concentration after intravenous (IV) dosing of xanomeline prodrugs at 1 mg/kg (Example A-6); format: in vivo, male Sprague-Dawley (SD) rats; conditions: male, Sprague-Dawley, IV 1 mg/kg of xanomeline; for concentration at 0.5 h: 0.500 h; for concentration at 0.75 h: 0.750 h
Experimental: as §1, §2, §3
Compound was dissolved in DMSO:HPCD (20% w/v in water) [10:90] 0.5 mg API/mL to provide doses of 1 mg/kg when administered IV in a 2 mL/kg dosing volume.
The pharmacokinetic properties of the synthesized xanomeline prodrugs after intravenous administration in a rat model were assessed. The concentration of prodrug was measured in each rat at various sampling timepoints after intravenous administration of the synthesized xanomeline prodrugs to rats.
Dose formulations were made at equivalent concentrations of active compound (xanomeline) adjusted for molecular weight of the compounds. The synthesized xanomeline prodrugs were dosed at 1 mg/kg intravenous (IV) nominal dose. Nominal doses were used in PK parameter determinations.

[3] = iv, 1 mg/kg, Mean, read-out: Prodrug Plasma Concentrations Following Intravenous Dosing
[4] = iv, 1 mg/kg, individual animals, read-out: Prodrug Plasma Concentrations Following Intravenous Dosing

Tmax ([1]; analyte prodrug): 30 min | concentration at 2 h ([1]; intramuscular, 5 mg/kg, 2.00 h, read-out: Prodrug Plasma Concentrations Following Intramuscular Dosing): 71.3 ng/mL | concentration at 4 h ([1]; intramuscular, 5 mg/kg, 4.00 h, read-out: Prodrug Plasma Concentrations Following Intramuscular Dosing): 33.4 ng/mL | concentration at 8 h ([1]; intramuscular, 5 mg/kg, 8.00 h, read-out: Prodrug Plasma Concentrations Following Intramuscular Dosing): 18.6 ng/mL | Tmax ([2]; analyte prodrug, individual animals): 15 min | concentration at 0.25 h ([2]; iv, 1 mg/kg, 0.250 h, Mean, read-out: Prodrug Plasma Concentrations Following Intravenous Dosing): 33.2 ng/mL | concentration at 0.5 h [2, 3]: 12.9 ng/mL | concentration at 0.5 h [2, 4]: 10.3 ng/mL | concentration at 0.75 h [2, 3]: 6.01 ng/mL | concentration at 0.75 h [2, 4]: 6.01 ng/mL | concentration at 1 h [2, 3]: 5.37 ng/mL | concentration at 1 h [2, 4]: 5.58 ng/mL | Cmax ([2]; iv, 1 mg/kg, analyte prodrug, Mean): 33.2 ng/mL | AUC(0-inf) ([2]; iv, 1 mg/kg, analyte prodrug, Mean, read-out: Prodrug AUCINF_obs): 44.4 ng·h/mL | AUC(0-t) ([2]; iv, 1 mg/kg, analyte prodrug, Mean, read-out: Prodrug AUClast): 42.4 ng·h/mL
SMILES: CCCCCCOc1nsnc1C1=CCC[N+](C)(C(CC)OC(=O)C(C)(C)C)C1 (stereo not drawn) [Compound 352]
